Assay results from patent publication US11261201B2 (priority 2018, dated 2022).
Converted amounts (≈) assume the structure as drawn. Like-named read-outs stand apart in the source and are kept apart here.

Assays:
[1] = tested on: H37RvMA; assay: Tuberculosis Alamar Blue/Resazurin assay (MIC); format: cell-based; conditions: read-out: WT H37Rv MTB Activity
[2] = tested on: E. coli; assay: Gram negative MIC protocol (OD600, LB, 24 h); conditions: Escherichia coli
Method: (§1) Overnight bacterial cultures were grown in LB with no added antibiotics at 37° C. with shaking. A 1:1000 dilution of these cultures into LB was exposed to concentration gradients of compounds in 96-well plates (100 μL per well assay volume). Resulting plates were incubated at 37° C. for 24 h without shaking, and OD600 was measured at the end of the incubation. MICs were determined as the lowest concentrations at which OD600 remained at baseline.

[3] = tested on: A. baumannii; assay: Gram negative MIC protocol (OD600, LB, 24 h); conditions: Acinetobacter baumannii
Method: as §1

[4] = Mycobacterium tuberculosis, H37RV, WT H37Rv MTB
[5] = read-out: MIC E. coli delta-TolC LB Media, E. coli delta-TolC, LB media, OD600
[6] = read-out: MIC WT E. coli LB Media, WT E. coli, LB media, OD600
[7] = read-out: MIC A. baumannii LB Media, A. baumannii, LB media, 24 h, OD600
[8] = read-out: MIC E. coli delta-TolC LB Media, E. coli delta-TolC strain, LB media, 24 h, OD600
[9] = read-out: MIC WT E. coli LB Media, wild-type E. coli, LB media, 24 h, OD600
[10] = Mycobacterium tuberculosis, H37RV
[11] = read-out: MIC A. baumannii LB Media

SMILES	MIC [1, 4] [µM]	MIC [2, 5] [µM]	MIC [2, 6] [µM]	MIC [3, 7] [µM]	MIC [2, 8] [µM]	MIC [2, 9] [µM]	MIC [1, 10] [µM]	MIC ([2]; read-out: MIC E. coli delta-TolC LB Media) [µM]	MIC ([2]; read-out: MIC WT E. coli LB Media) [µM]	MIC [3, 11] [µM]	MIC ([1]; WT H37Rv MTB) [µM]
O=C(O)C(CC1CCCCC1)NCc1ccccc1 (stereo not shown) [B180]	> 150	> 300	> 300	> 300	–	–	–	–	–	–	–
c1ccc(CNCCc2cccc3c2NCCC3)cc1 [B105]	91 (≈ 24.2 µg/mL)	> 150	> 150	> 150	–	–	–	–	–	–	–
CC(CC1CCCCC1)NCc1ccccc1OC(F)(F)F (stereo not shown) [B321]	> 150	–	–	> 150	55 (≈ 17.3 µg/mL)	> 150	–	–	–	–	–
Brc1ccc(CC2(NCc3ccccc3)CC2)cc1 [B91]	–	90 (≈ 28.5 µg/mL)	> 150	> 150	–	–	> 150	–	–	–	–
C[C@@H](NCc1ccccc1)C12CC3CC(CC(C3)C1)C2 [B196]	55 (≈ 14.8 µg/mL)	300 (≈ 80.8 µg/mL)	> 300	> 300	–	–	–	–	–	–	–
c1ccc(CNCC2(c3ccc4c(c3)OCO4)CC2)cc1 [B18]	–	> 150	> 150	> 150	–	–	> 150	–	–	–	–
CCOCOc1ccccc1CNC(C)CC1CCCCC1 (stereo not shown) [B311]	> 150	–	–	> 150	7 (≈ 2.14 µg/mL)	> 150	–	–	–	–	–
c1ccc(CNCC2CCCc3ccccc32)cc1 (stereo not shown) [B127]	150 (≈ 37.7 µg/mL)	> 150	> 150	> 150	–	–	–	–	–	–	–
CC(/C=C/C1CCCCC1)NCc1ccccc1 (stereo not shown) [B219, (E)-N-benzyl-4-cyclohexylbut-3-en-2-amine]	> 150	–	–	> 300	> 300	> 300	–	–	–	–	–
CC1(c2ccc(F)cc2)N(Cc2ccccc2)C12CC2 (stereo not shown) [B98]	–	–	–	> 150	–	–	> 150	150 (≈ 40.1 µg/mL)	> 150	–	–
O=C1NCC(COc2ccccc2CNCCC2=CCCCC2)O1 (stereo not shown) [B402]	> 150	33 (≈ 10.9 µg/mL)	150 (≈ 49.6 µg/mL)	> 150	–	–	–	–	–	–	–
CC(NCc1ccccc1)C12CCC(CC1)CC2 (stereo not shown) [B87]	> 150	> 150	300 (≈ 73 µg/mL)	> 150	–	–	–	–	–	–	–
CCN1CC(COc2ccccc2CNC(C)CC2CCCCC2)OC1=O (stereo not shown) [B369]	> 150	–	–	> 150	3 (≈ 1.12 µg/mL)	> 150	–	–	–	–	–
C1=C(CCNCc2cccnc2)CCCC1 [B4]	–	> 150	> 150	> 150	–	–	> 150	–	–	–	–
CC(CC1CCCCC1)NCc1ccccc1OCC1CC2CCC1C2 (stereo not shown) [B386, N-(2-(bicyclo[2.2.1]heptan-2-ylmethoxy)benzyl)-1-cyclohexylpropan-2-amine]	20.2 (≈ 7.18 µg/mL)	–	–	55 (≈ 19.6 µg/mL)	5 (≈ 1.78 µg/mL)	> 150	–	–	–	–	–
CC(C)CCNCc1ccccc1 [B2]	> 150	> 150	> 150	> 150	–	–	–	–	–	–	–
C1=C(CCNCc2cccs2)CCCC1 [B152]	> 150	> 150	> 150	> 150	–	–	–	–	–	–	–
CC1CCCCC1CCN1Cc2ccccc2CC1=O (stereo not shown) [B415, 2-(2-(2-methylcyclohexyl)ethyl)-1,4-dihydroisoquinolin-3(2H)-one]	1.26 (≈ 0.341 µg/mL)	55 (≈ 14.9 µg/mL)	> 150	> 150	–	–	–	–	–	–	–
OB(O)Cc1ccccc1CNCCC1CCCCC1 [B376, 2-((2-cyclohexylethylamino)methyl)benzylboronic acid]	> 150	–	–	> 150	91 (≈ 25 µg/mL)	150 (≈ 41.3 µg/mL)	–	–	–	–	–
Oc1ccccc1CNCCC1CCCCC1 [B226, 2-((2-cyclohexylethylamino)methyl)phenol]	33 (≈ 7.7 µg/mL)	–	–	54 (≈ 12.6 µg/mL)	33 (≈ 7.7 µg/mL)	54 (≈ 12.6 µg/mL)	–	–	–	–	–
CC(Cc1ncccn1)NCc1ccccc1 (stereo not shown) [B82]	–	> 150	> 150	> 150	–	–	> 150	–	–	–	–
CCOCCOc1ccccc1CNC(C)CC1CCCCC1 (stereo not shown) [B313]	> 150	–	–	> 150	7 (≈ 2.24 µg/mL)	> 150	–	–	–	–	–
CC(Cc1cccc(C(F)(F)F)c1)NCc1ccccc1 (stereo not shown) [B81]	–	> 150	> 150	–	–	–	> 150	–	–	> 150	–
c1ccc(CNC2(C3CC3)CC2)cc1 [B32]	> 150	> 150	> 150	> 150	–	–	–	–	–	–	–
CC1CCC(NCc2ccccc2)CC1 (stereo not shown) [B142]	> 150	> 150	> 150	> 150	–	–	–	–	–	–	–
CC(Cc1ccccc1)NCc1ccccc1 (stereo not shown) [B8]	–	> 150	> 150	–	–	–	> 150	–	–	> 150	–

SMILES	MIC [1, 4] [µM]	MIC [2, 5] [µM]	MIC [2, 6] [µM]	MIC [3, 7] [µM]	MIC [2, 8] [µM]	MIC [2, 9] [µM]	MIC [1, 10] [µM]	MIC ([2]; read-out: MIC E. coli delta-TolC LB Media) [µM]	MIC ([2]; read-out: MIC WT E. coli LB Media) [µM]	MIC [3, 11] [µM]	MIC ([1]; WT H37Rv MTB) [µM]
COCCCOc1ccccc1CNC(C)CC1CCCCC1 (stereo not shown) [B312]	> 150	–	–	> 150	7 (≈ 2.24 µg/mL)	> 150	–	–	–	–	–
COc1cccc(COc2ccccc2CNC(C)CC2CCCCC2)c1 (stereo not shown) [B459, 1-cyclohexyl-N-(2-((3-methoxybenzyl)oxy)benzyl)propan-2-amine]	17 (≈ 6.25 µg/mL)	2 (≈ 0.735 µg/mL)	55 (≈ 20.2 µg/mL)	91 (≈ 33.4 µg/mL)	–	–	–	–	–	–	–
CCC(CNCc1ccccc1)N1CCc2ccccc2C1 (stereo not shown) [B131]	> 150	> 150	> 150	> 150	–	–	–	–	–	–	–
CC(CC1CCCCC1)NCc1ccccc1OCCCn1c(=O)[nH]c2ccccc21 (stereo not shown) [B247]	> 150	–	–	91 (≈ 38.4 µg/mL)	2 (≈ 0.843 µg/mL)	150 (≈ 63.2 µg/mL)	–	–	–	–	–
CC(CC1CCCCC1)NCc1ccccc1CS(=O)(=O)N[C@H]1C[C@@H](C(=O)O)C1 (stereo partly drawn) [B453, (1S,3S)-3-(((2-(((1-cyclohexylpropan-2-yl)amino)methyl)phenyl)methyl)sulfonamido)cyclobutane-1-carboxylic acid]	> 150	20 (≈ 8.45 µg/mL)	> 150	> 150	–	–	–	–	–	–	–
C#CCNC(=O)COc1ccccc1CNC(C)CC1CCCCC1 (stereo not shown) [B359]	> 150	–	–	150 (≈ 51.4 µg/mL)	12 (≈ 4.11 µg/mL)	> 150	–	–	–	–	–
c1ccc(CNCCC2COc3ccccc3O2)cc1 (stereo not shown) [B46]	> 150	> 150	> 150	> 150	–	–	–	–	–	–	–
C1=C(CCNCc2ccccc2)CCC1 [B39]	> 150	> 150	> 150	> 150	–	–	–	–	–	–	–
c1ccc(CNCCC23CC4CC(CC(C4)C2)C3)cc1 [B198]	–	–	–	170 (≈ 45.8 µg/mL)	170 (≈ 45.8 µg/mL)	> 300	–	–	–	–	91 (≈ 24.5 µg/mL)
Ic1cccc(CNCCC2CCCCC2)c1 [B348]	150 (≈ 51.5 µg/mL)	–	–	> 150	> 150	> 150	–	–	–	–	–
CC1(C)CCC2(CC2CNCc2ccccc2)c2ccccc21 (stereo not shown) [B109]	55 (≈ 16.8 µg/mL)	91 (≈ 27.8 µg/mL)	> 150	150 (≈ 45.8 µg/mL)	–	–	–	–	–	–	–
O=C1Cc2ccccc2CN1CCC1CCSCC1 [B410, 2-(2-(tetrahydro-2H-thiopyran-4-yl)ethyl)-1,4-dihydroisoquinolin-3(2H)-one]	> 150	> 150	> 150	> 150	–	–	–	–	–	–	–
c1ccc(CNCCN2CCCCC2)cc1 [B223]	> 150	–	–	> 300	> 150	> 300	–	–	–	–	–
Cc1noc(COc2ccccc2CNC(C)CC2CCCCC2)n1 (stereo not shown) [B278]	> 150	–	–	> 150	12 (≈ 4.12 µg/mL)	> 150	–	–	–	–	–
CC(CC1CCCCC1)NCc1ccccc1OC1CCC(F)(F)CC1 (stereo not shown) [B396, 1-cyclohexyl-N-(2-((4,4-difluorocyclohexyl)oxy)benzyl)propan-2-amine]	55.1 (≈ 20.1 µg/mL)	–	–	150 (≈ 54.8 µg/mL)	3 (≈ 1.1 µg/mL)	150 (≈ 54.8 µg/mL)	–	–	–	–	–
COC(=O)c1ccoc1COc1ccccc1CNC(C)CC1CCCCC1 (stereo not shown) [B267]	91 (≈ 35.1 µg/mL)	–	–	> 150	7 (≈ 2.7 µg/mL)	> 150	–	–	–	–	–
CC(CN1Cc2ccccc2CC1=O)C1CCCCC1 (stereo not shown) [B413, 2-(2-cyclohexylpropyl)-1,4-dihydroisoquinolin-3(2H)-one]	7.4 (≈ 2.01 µg/mL)	55 (≈ 14.9 µg/mL)	> 150	> 150	–	–	–	–	–	–	–
CC(CC1CCCCC1)NCc1ccccc1OCC1(CO)COC1 (stereo not shown) [B269]	> 150	–	–	55 (≈ 19.1 µg/mL)	7 (≈ 2.43 µg/mL)	> 150	–	–	–	–	–
CC(CC1CCCCC1)NCc1ccccc1OC1CC2CCC1CC2 (stereo not shown) [B395, N-(2-(bicyclo[2.2.2]octan-2-yloxy)benzyl)-1-cyclohexylpropan-2-amine]	20.2 (≈ 7.18 µg/mL)	–	–	33 (≈ 11.7 µg/mL)	3 (≈ 1.07 µg/mL)	> 150	–	–	–	–	–
CC(CC1CCCCC1)NCc1ccccc1OCC(=O)NC(C)C(=O)N(C)C (stereo not shown) [B270]	> 150	–	–	> 150	20 (≈ 8.07 µg/mL)	> 150	–	–	–	–	–
CC(C)(C)OC(=O)N1CCC(CCNCc2ccccc2)CC1 [B216, tert-butyl 4-(2-(benzylamino)ethyl) piperidine-1-carboxylate]	> 150	–	–	> 300	> 300	> 300	–	–	–	–	–
CC(CC1CCCCC1)NCc1ccccc1CS(=O)(=O)NC(=O)NC1CCCCC1 (stereo not shown) [B449, N-(cyclohexylcarbamoyl)-1-(2-(((1-cyclohexylpropan-2-yl)amino)methyl)phenyl) methanesulfonamide]	> 150	12 (≈ 5.4 µg/mL)	> 150	> 150	–	–	–	–	–	–	–
Cc1cccc(C)c1CNCCC1=CCCCC1 [B73]	> 150	> 150	> 150	> 150	–	–	–	–	–	–	–
FC1(F)C2CCCCC21CCNCc1ccccc1 (stereo not shown) [B183]	> 150	> 300	> 300	> 300	–	–	–	–	–	–	–
CC(CC1CCCCC1)NCc1ccccc1OCC(=O)NC1CC1 (stereo not shown) [B280]	> 150	–	–	150 (≈ 51.7 µg/mL)	12 (≈ 4.13 µg/mL)	150 (≈ 51.7 µg/mL)	–	–	–	–	–
COCCCCOc1ccccc1CNC(C)CC1CCCCC1 (stereo not shown) [B277]	> 150	–	–	> 150	4 (≈ 1.33 µg/mL)	> 150	–	–	–	–	–
